Measured values from the CheMixHub viscosity set.

Experiment: xn = mol fraction of the nth substance listed

O=C1OCCO1 + COC(=O)OC
viscosity [mPa·s], 101.3 kPa
Settings | x2 = 0.0802 | x2 = 0.166 | x2 = 0.2441 | x2 = 0.3467 | x2 = 0.4421 | x2 = 0.5442 | x2 = 0.6512 | x2 = 0.761 | x2 = 0.8513
298.15 K | 2.043 | 1.83 | 1.656 | 1.452 | 1.285 | 1.127 | 0.983 | 0.854 | 0.761
313.15 K | 1.688 | 1.506 | 1.357 | 1.184 | 1.042 | 0.91 | 0.789 | 0.682 | 0.604

CC(C)CO + COC(C)(C)C
298.15 K, 101 kPa
Settings | viscosity [mPa·s]
x2 = 0.1007 | 2.39
x2 = 0.2009 | 1.72
x2 = 0.2996 | 1.27
x2 = 0.3951 | 0.987
x2 = 0.502 | 0.776
x2 = 0.6038 | 0.637
x2 = 0.7002 | 0.536
x2 = 0.8022 | 0.449
x2 = 0.9008 | 0.385

CC1=CCC2CC1C2(C)C (stereo not given) + COC(C)(C)C
298.15 K, 101.33 kPa
Settings | viscosity [mPa·s]
x2 = 0.0598 | 1.196
x2 = 0.128 | 1.091
x2 = 0.2151 | 0.9713
x2 = 0.357 | 0.8048
x2 = 0.4839 | 0.6762
x2 = 0.5691 | 0.603
x2 = 0.6514 | 0.5379
x2 = 0.7236 | 0.4866
x2 = 0.8254 | 0.4221
x2 = 0.9034 | 0.379
x2 = 0.9583 | 0.3576

CCCCCOC(C)=O + COc1ccccc1
Settings | viscosity [mPa·s]
298.15 K, 101 kPa, x2 = 0.5 | 0.8265

ClCC(Cl)Cl + COc1ccccc1N
viscosity [mPa·s], 100 kPa
Settings | x2 = 0.0884 | x2 = 0.1905 | x2 = 0.2923 | x2 = 0.4076 | x2 = 0.5076 | x2 = 0.5945 | x2 = 0.7016 | x2 = 0.8104 | x2 = 0.9023
303.15 K | 1.376 | 1.786 | 2.192 | 2.647 | 3.038 | 3.376 | 3.789 | 4.204 | 4.554
308.15 K | 1.291 | 1.676 | 2.055 | 2.478 | 2.841 | 3.154 | 3.535 | 3.918 | 4.236
313.15 K | 1.204 | 1.566 | 1.916 | 2.307 | 2.641 | 2.929 | 3.279 | 3.629 | 3.918

C1CCC2=[NH+]CCCN2CC1.c1nc[n-]n1 + CS(C)=O
303.15 K, 100 kPa
Settings | viscosity [mPa·s]
x1 = 0.1001 | 3.86
x1 = 0.2 | 7.19
x1 = 0.2999 | 12.29
x1 = 0.4003 | 22.17
x1 = 0.4989 | 39.73
x1 = 0.6002 | 77.3
x1 = 0.7008 | 152.3
x1 = 0.7993 | 309.9
x1 = 0.9002 | 586.4
